Assay [1] has as its target orexin-1 (Homo sapiens (Human), UniProt O43613). The assay is described as follows: Intracellular calcium measurement (FLIPR), CHO cells expressing human orexin-1 receptor, 3 nM orexin-A. In kind it is cell-based. As to conditions: read-out: IC50 OX1. The essentials: (§1)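 Antagonist is added 120 min before agonist. Fluo-4 AM-loaded CHO cells carry human orexin-1 or orexin-2 receptor, and calcium is read by FLIPR.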
A general note: Calcium assays in cells follow changes in intracellular calcium, usually with a dye or a luminescent sensor.

Assay [2] addresses human orexin-2 receptor (Homo sapiens (Human), UniProt O43614). The assay is described as follows: Intracellular calcium measurement (FLIPR), CHO cells expressing human orexin-2 receptor, 3 nM orexin-A. Format: cell-based. As to conditions: read-out: IC50 OX2. The essentials:
as §1

The mark [3] stands for this setting: CHO cells expressing human orexin-2 receptor, FLIPR, 3 nM orexin-A, geometric mean if determined several times.
The mark [4] stands for this setting: CHO cells expressing human orexin-1 receptor, FLIPR, 3 nM orexin-A, geometric mean if determined several times.

This note sets out measurements from patent publication US9493446B2, “Orexin receptor antagonists which are [ortho bi-(hetero-)aryl]-[2-(meta bi-(hetero-)aryl)-pyrrolidin-1-yl]-methanone derivatives” (Actelion Pharmaceuticals Ltd, priority 2012, dated 2016).

Like-named read-outs stand apart in the source and are kept apart here.

Chain of orexin-1 (O43613 whole entry): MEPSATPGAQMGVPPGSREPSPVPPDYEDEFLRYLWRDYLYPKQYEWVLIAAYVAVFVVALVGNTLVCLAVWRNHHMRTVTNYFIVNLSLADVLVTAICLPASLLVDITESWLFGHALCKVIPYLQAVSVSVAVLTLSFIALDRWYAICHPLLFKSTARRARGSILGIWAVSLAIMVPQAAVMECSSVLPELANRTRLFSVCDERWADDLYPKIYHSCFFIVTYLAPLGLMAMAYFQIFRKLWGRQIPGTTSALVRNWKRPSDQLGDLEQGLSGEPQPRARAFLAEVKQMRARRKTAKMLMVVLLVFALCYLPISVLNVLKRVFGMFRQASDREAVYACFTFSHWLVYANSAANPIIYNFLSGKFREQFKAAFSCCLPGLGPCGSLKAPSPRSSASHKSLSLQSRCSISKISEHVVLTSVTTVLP
Chain of human orexin-2 receptor (O43614 whole entry): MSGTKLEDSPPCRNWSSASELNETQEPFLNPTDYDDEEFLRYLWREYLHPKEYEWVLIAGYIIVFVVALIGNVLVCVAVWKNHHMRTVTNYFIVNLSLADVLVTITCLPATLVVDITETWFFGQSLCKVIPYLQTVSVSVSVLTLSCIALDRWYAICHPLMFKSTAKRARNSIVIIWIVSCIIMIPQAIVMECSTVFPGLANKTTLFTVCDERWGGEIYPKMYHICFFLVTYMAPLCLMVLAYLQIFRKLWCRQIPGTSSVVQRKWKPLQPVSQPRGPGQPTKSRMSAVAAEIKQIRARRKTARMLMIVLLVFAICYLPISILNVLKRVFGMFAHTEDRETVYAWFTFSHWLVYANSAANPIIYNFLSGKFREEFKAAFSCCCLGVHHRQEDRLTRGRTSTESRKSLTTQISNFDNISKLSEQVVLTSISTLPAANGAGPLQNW

As for `Cc1c(Cl)cccc1-c1noc([C@@H]2CCCN2C(=O)c2ccc(C(F)(F)F)cc2-n2nccn2)n1` [compound 122], the IC50 amounted to 933 nM in assay [1] and 221 nM in assay [2] (setting [3]).

On to `Cc1nc(C(=O)N2CCC[C@H]2c2nc(-c3cccc(Cl)c3C)no2)c(-c2cccc(F)c2)s1` [compound 123], for which the IC50 in assay [1] (setting [4]) is 133 nM; in assay [2] (setting [3]), 111 nM.

As for `Cc1nc(C(=O)N2CCC[C@H]2c2nc(-c3cccc(Cl)c3C)no2)c(-c2ccccc2F)s1` [compound 124], the IC50 stood at 145 nM in assay [1] (setting [4]) and 77 nM in assay [2] (setting [3]).

`Cc1nc(C(=O)N2CCC[C@H]2c2nc(-c3cccc(Cl)c3C)no2)c(-c2ccc(F)cc2)s1` [compound 125]: the IC50 came to 353 nM in assay [1] (setting [4]) and 80 nM in assay [2] (setting [3]).

In the case of `Cc1cccc(-c2sc(C)nc2C(=O)N2CCC[C@H]2c2nc(-c3cccc(Cl)c3C)no2)c1` [compound 126], the IC50 was 221 nM in assay [1] (setting [4]) and 118 nM in assay [2] (setting [3]).

For the compound `Cc1ncc(C(=O)N2CCC[C@H]2c2nc(-c3cccc(Cl)c3C)no2)c(-c2cccc(Cl)c2)n1` [compound 127], the IC50 in assay [1] (setting [4]) came to 581 nM; in assay [2], 125 nM.

For `COc1cccc(-c2nccnc2C(=O)N2CCC[C@H]2c2nc(-c3cccc(Cl)c3C)no2)c1` [compound 128], the IC50 in assay [1] was found to be 200 nM; in assay [2] (setting [3]), 181 nM.

Consider `Cc1ccc(C(=O)N2CCC[C@H]2c2nc(-c3cccc(Cl)c3C)no2)c(-n2nccn2)c1C` [compound 129], for which the figures for the IC50 in assay [1] and in assay [2] (setting [3]) were 419 nM and 287 nM, respectively.

For `COc1cc(C(=O)N2CCC[C@H]2c2nc(-c3cccc(Cl)c3C)no2)c(-n2nccn2)cc1F` [compound 130], the IC50 worked out at 188 nM in assay [1] (setting [4]) and 16 nM in assay [2] (setting [3]).

Regarding `Cc1ccc(-c2ncco2)c(C(=O)N2CCC[C@H]2c2nc(-c3cccc(Cl)c3C)no2)c1` [compound 131], the IC50 in assay [1] was determined as 45 nM; in assay [2], 8 nM.

Consider `Cc1cc(F)cc(C(=O)N2CCC[C@H]2c2nc(-c3cccc(Cl)c3C)no2)c1-n1nccn1` [compound 132], for which the half-maximal inhibitory concentration (IC50) in assay [1] (setting [4]) is 831 nM; in assay [2], 250 nM.

With `COc1cc(C(=O)N2CCC[C@H]2c2nc(-c3cccc(Cl)c3C)no2)c(-n2nccn2)cc1OC` [compound 133], the IC50 in assay [1] (setting [4]) is 522 nM; in assay [2] (setting [3]), 36 nM.

Take `Cc1noc(-c2ccccc2C(=O)N2CCC[C@H]2c2nc(-c3ccccc3OC(F)(F)F)no2)n1` [compound 134]: the IC50 in assay [1] (setting [4]) was 274 nM; in assay [2] (setting [3]), 219 nM.

In the case of `O=C(c1ccccc1-c1ccccc1)N1CCC[C@H]1c1nc(-c2ccccc2OC(F)(F)F)no1` [compound 135, Biphenyl-2-yl-{(S)-2-[3-(2-trifluoromethoxy-phenyl)-[1,2,4]oxadiazol-5-yl]-pyrrolidin-1-yl}-methanone], the IC50 in assay [1] (setting [4]) was determined as 60 nM; in assay [2] (setting [3]) it was 17 nM.

For the compound `Cc1ccc(-c2ccccc2)c(C(=O)N2CCC[C@H]2c2nc(-c3ccccc3OC(F)(F)F)no2)c1` [compound 136, (4-Methyl-biphenyl-2-yl)-{(S)-2-[3-(2-trifluoromethoxy-phenyl)-[1,2,4]oxadiazol-5-yl]-pyrrolidin-1-yl}-methanone], the IC50 in assay [1] (setting [4]) turned out to be 12 nM; in assay [2] (setting [3]), 9 nM.

Regarding `Cc1ccc(-n2cccn2)c(C(=O)N2CCC[C@H]2c2nc(-c3ccccc3OC(F)(F)F)no2)c1` [compound 137, (5-Methyl-2-pyrazol-1-yl-phenyl)-{(S)-2-[3-(2-trifluoromethoxy-phenyl)-[1,2,4]oxadiazol-5-yl]-pyrrolidin-1-yl}-methanone], the IC50 in assay [1] (setting [4]) is 33 nM; in assay [2] (setting [3]) it was 23 nM.

As to `Cc1ccc(-c2ccccn2)c(C(=O)N2CCC[C@H]2c2nc(-c3ccccc3OC(F)(F)F)no2)c1` [compound 138, (5-Methyl-2-pyridin-2-yl-phenyl)-{(S)-2-[3-(2-trifluoromethoxy-phenyl)-[1,2,4]oxadiazol-5-yl]-pyrrolidin-1-yl}-methanone], the IC50 turned out to be 49 nM in assay [1] (setting [4]) and 30 nM in assay [2] (setting [3]).

On to `Cc1cccc(-c2oc(C)nc2C(=O)N2CCC[C@H]2c2nc(-c3ccccc3OC(F)(F)F)no2)c1` [compound 139, (2-Methyl-5-m-tolyl-oxazol-4-yl)-{(S)-2-[3-(2-trifluoromethoxy-phenyl)-[1,2,4]oxadiazol-5-yl]-pyrrolidin-1-yl}-methanone], for which the IC50 in assay [1] (setting [4]) was found to be 124 nM; in assay [2] (setting [3]), 62 nM.

Consider `Cc1cccc(-c2ocnc2C(=O)N2CCC[C@H]2c2nc(-c3ccccc3OC(F)(F)F)no2)c1` [compound 140, (5-m-Tolyl-oxazol-4-yl)-{(S)-2-[3-(2-trifluoromethoxy-phenyl)-[1,2,4]oxadiazol-5-yl]-pyrrolidin-1-yl}-methanone], for which the IC50 in assay [1] (setting [4]) came out at 100 nM; in assay [2] (setting [3]) it was 45 nM.

In the case of `O=C(c1ccccc1-n1nccn1)N1CCC[C@H]1c1nc(-c2ccccc2OC(F)(F)F)no1` [compound 141, (2-[1,2,3]Triazol-2-yl-phenyl)-{(S)-2-[3-(2-trifluoromethoxy-phenyl)-[1,2,4]oxadiazol-5-yl]-pyrrolidin-1-yl}-methanone], the IC50 was 59 nM in assay [1] (setting [4]) and 29 nM in assay [2] (setting [3]).

As to `O=C(c1ncsc1-c1cccc(Cl)c1)N1CCC[C@H]1c1nc(-c2ccccc2OC(F)(F)F)no1` [compound 142], the IC50 in assay [1] (setting [4]) turned out to be 123 nM; in assay [2] (setting [3]) it was 80 nM.

Turning to `O=C(c1cc(Cl)ccc1-n1nccn1)N1CCC[C@H]1c1nc(-c2ccccc2OC(F)(F)F)no1` [compound 143], the values for the IC50 in assay [1] (setting [4]) and in assay [2] were 47 nM and 34 nM, respectively.

Regarding `COc1ccc(-n2nccn2)c(C(=O)N2CCC[C@H]2c2nc(-c3ccccc3OC(F)(F)F)no2)c1F` [compound 144, (2-Fluoro-3-methoxy-6-[1,2,3]triazol-2-yl-phenyl)-{(S)-2-[3-(2-trifluoromethoxy-phenyl)-[1,2,4]oxadiazol-5-yl]-pyrrolidin-1-yl}-methanone], the IC50 in assay [1] (setting [4]) came to 26 nM; in assay [2] (setting [3]), 83 nM.

For the compound `Cc1ccc(-n2nccn2)c(C(=O)N2CCC[C@H]2c2nc(-c3ccccc3OC(F)(F)F)no2)c1F` [compound 145, (2-Fluoro-3-methyl-6-[1,2,3]triazol-2-yl-phenyl)-{(S)-2-[3-(2-trifluoromethoxy-phenyl)-[1,2,4]oxadiazol-5-yl]-pyrrolidin-1-yl}-methanone], the IC50 was 19 nM in assay [1] (setting [4]) and 15 nM in assay [2] (setting [3]).

As to `Cc1ccc(C(=O)N2CCC[C@H]2c2nc(-c3ccccc3OC(F)(F)F)no2)c(-n2nccn2)c1` [compound 147, (4-Methyl-2-[1,2,3]triazol-2-yl-phenyl)-{(S)-2-[3-(2-trifluoromethoxy-phenyl)-[1,2,4]oxadiazol-5-yl]-pyrrolidin-1-yl}-methanone], the IC50 in assay [1] (setting [4]) is 31 nM; in assay [2] (setting [3]), 15 nM.

In the case of `O=C(c1cc(C(F)(F)F)ccc1-n1nccn1)N1CCC[C@H]1c1nc(-c2ccccc2OC(F)(F)F)no1` [compound 148, (2-[1,2,3]Triazol-2-yl-5-trifluoromethyl-phenyl)-{(S)-2-[3-(2-trifluoromethoxy-phenyl)-[1,2,4]oxadiazol-5-yl]-pyrrolidin-1-yl}-methanone], the IC50 amounted to 241 nM in assay [1] (setting [4]) and 285 nM in assay [2] (setting [3]).

As a reminder, the IC50 is the point on the concentration scale where inhibition reaches its midpoint.
